# T1: RAD52 (Homo sapiens, UniProt P43351)
# T1 sequence (P43351 1-418): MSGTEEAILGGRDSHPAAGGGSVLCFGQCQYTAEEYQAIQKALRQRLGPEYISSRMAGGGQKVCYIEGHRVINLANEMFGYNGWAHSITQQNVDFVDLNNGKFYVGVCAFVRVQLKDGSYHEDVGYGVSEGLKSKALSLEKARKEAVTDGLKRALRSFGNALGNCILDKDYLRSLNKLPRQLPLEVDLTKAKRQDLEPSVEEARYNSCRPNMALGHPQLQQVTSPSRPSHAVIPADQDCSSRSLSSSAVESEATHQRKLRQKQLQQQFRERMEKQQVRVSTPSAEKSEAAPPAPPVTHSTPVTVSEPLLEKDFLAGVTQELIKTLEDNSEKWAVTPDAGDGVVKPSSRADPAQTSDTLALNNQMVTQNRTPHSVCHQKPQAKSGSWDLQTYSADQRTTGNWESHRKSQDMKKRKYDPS
# T2: RAD52-ssDNA interaction (Homo sapiens, UniProt P43351)
# T2 construct: made in house
# T2 sequence (P43351 1-418): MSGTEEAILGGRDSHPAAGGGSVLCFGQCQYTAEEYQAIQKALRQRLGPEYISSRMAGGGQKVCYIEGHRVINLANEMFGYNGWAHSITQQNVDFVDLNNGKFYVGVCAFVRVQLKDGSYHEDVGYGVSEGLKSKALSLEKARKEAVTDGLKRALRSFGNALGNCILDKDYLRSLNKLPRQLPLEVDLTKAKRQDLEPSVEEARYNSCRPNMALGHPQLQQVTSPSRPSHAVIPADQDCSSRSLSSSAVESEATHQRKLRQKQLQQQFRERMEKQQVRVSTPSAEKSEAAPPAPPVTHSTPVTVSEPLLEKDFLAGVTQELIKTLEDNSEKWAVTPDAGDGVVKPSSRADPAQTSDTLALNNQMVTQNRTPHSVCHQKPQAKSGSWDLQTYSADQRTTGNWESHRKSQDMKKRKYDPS
# T3: RAD52-dsDNA interaction (Homo sapiens, UniProt P43351)
# T3 construct: made in house
# T3 sequence (P43351 1-418): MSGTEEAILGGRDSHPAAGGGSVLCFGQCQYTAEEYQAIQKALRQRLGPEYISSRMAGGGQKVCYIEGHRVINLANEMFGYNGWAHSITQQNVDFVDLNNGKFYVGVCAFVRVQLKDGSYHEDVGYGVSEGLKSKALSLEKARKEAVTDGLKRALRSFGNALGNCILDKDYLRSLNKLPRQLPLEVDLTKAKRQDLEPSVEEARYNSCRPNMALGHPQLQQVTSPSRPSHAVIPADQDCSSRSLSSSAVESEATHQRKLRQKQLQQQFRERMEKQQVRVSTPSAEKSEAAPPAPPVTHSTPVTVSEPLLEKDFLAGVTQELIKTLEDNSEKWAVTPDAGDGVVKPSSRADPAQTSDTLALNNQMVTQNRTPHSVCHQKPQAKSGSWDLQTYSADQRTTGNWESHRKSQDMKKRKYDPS
# T4: RAD52 (Homo sapiens, UniProt P43351 P43351:1-418)
# T4 sequence: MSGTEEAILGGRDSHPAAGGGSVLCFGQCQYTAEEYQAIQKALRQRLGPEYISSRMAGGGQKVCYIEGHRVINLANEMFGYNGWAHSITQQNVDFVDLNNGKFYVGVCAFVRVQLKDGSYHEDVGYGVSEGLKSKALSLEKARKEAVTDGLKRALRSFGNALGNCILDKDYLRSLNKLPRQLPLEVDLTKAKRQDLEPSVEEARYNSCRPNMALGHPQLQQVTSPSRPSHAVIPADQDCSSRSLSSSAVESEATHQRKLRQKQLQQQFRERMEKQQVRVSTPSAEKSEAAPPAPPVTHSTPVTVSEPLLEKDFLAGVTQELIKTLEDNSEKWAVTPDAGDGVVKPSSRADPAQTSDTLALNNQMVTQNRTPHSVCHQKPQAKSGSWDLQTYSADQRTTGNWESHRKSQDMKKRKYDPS
# Key:
# [1] = biological target: T1, RAD52; conditions: cited from earlier work
# [2] = Solubility observed during testing; format: physicochemical
# [3] = biological target: T2, RAD52-ssDNA interaction; test: FRET-based ssDNA binding and wrapping assay (RAD52-Cy3-dT30-Cy5 complex); conditions: FRET-based competition assay; read-out: IC50, RAD52-ssDNA interaction
# Experimental: We titrated increasing amounts of each compound into a cuvette containing preformed stoichiometric RAD52-Cy3-dT30-Cy5 complexes (1 nM Cy3-dT30-Cy5 and 8 nM RAD52). […] At each concentration of the compound, the FRET signal was adjusted for the change in Cy3 and Cy5 fluorescence in the presence of the compound, but in the absence of protein.
# (§1) FRET-based DNA binding and annealing assays: FRET-based ssDNA binding, dsDNA binding, and annealing assays were carried out as previously described (Grimme et al., 2010, Grimme and Spies, 2011) using Cary Eclipse spectrofluorimeter (Varian) at 25° C. in buffer containing 30 mM Tris-Acetate pH7.5, 1 mM DTT, and 0.1 mg/mL BSA. Cy3 dye was excited at 530 nm and its emission was monitored at 565 nm. Emission of Cy5 acceptor fluorophore excited through the energy transfer from Cy3 donor is monitored at 660 nm simultaneously with emission of Cy3 dye. Both the excitation and the emission slit widths were set to 10 nm.
# All experiments were performed in triplicates, and the data are shown as averages and standard deviations for three independent measurements. To remove possible experimental artifacts associated with chromogenic or fluorogenic compounds, as well as with the compounds that may quench or enhance Cy3 or Cy5 fluorescence, we also performed control titrations whereby we titrated each compound into 1 nM Cy3-dT30-Cy5 in the absence of RAD52. For each compound concentration we subtracted the difference in the FRET signal in the presence and absence of the compound from the respective FRET signal in the presence of RAD52. The FRET signal corrected for the compound fluorescence was calculated using the equation: […]
# as previously described (Grimme et al., 2010, Grimme and Spies, 2011) and plotted as a function of compound concentration and fitted to the following inhibition model”
# (§2) where FRET0 is the initial FRET value of RAD52-ssDNA complex in the absence of the compound and FRETmin is the FRET value at complete inhibition. FRET values were calculated as an average of three or more independent annealing reactions plotted against the concentration of the compound. Inhibition of the RAD52-dsDNA interaction was assayed in a similar experiment, except the stoichiometric complexes containing 1 nM molecules of Cy3-Oligo28-Cy5 duplex DNA and 10 nM RAD52. […] In all experiments, the FRET values for each data point were corrected for the effects of the compounds on the respective substrate in the absence of RAD52.
# [4] = biological target: T5, RAD52-RPA-Cy3-dT30-Cy5 complex (Homo sapiens, UniProt P43351); test: FRET-based RAD52 binding/wrapping of RPA-coated ssDNA
# T5 construct: made in house
# T5 sequence (P27694 whole entry partner, one chain of several): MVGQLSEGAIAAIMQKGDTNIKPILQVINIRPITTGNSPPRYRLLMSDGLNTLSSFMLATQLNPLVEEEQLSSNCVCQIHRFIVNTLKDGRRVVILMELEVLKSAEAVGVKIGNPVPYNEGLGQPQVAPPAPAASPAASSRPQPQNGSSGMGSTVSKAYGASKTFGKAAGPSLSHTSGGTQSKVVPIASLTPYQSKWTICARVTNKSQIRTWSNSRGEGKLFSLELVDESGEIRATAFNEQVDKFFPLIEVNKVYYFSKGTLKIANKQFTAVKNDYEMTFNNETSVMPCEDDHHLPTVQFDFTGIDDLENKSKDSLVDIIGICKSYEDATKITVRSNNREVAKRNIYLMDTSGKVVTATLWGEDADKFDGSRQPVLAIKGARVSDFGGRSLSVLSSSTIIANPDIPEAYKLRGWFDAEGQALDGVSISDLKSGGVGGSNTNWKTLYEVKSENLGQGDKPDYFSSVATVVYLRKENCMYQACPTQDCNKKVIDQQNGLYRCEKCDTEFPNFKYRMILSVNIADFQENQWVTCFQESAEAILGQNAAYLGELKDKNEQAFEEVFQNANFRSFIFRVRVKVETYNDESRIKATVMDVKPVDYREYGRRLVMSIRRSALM
# T5 sequence (P15927 whole entry partner, one chain of several): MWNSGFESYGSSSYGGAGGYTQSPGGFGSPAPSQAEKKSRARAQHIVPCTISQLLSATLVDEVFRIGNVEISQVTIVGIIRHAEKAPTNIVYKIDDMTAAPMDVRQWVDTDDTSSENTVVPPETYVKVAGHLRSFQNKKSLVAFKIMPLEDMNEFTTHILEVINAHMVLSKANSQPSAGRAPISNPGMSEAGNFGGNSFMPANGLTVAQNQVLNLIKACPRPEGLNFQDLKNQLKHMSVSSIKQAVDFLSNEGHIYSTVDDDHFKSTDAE
# T5 sequence (P35244 whole entry partner, one chain of several): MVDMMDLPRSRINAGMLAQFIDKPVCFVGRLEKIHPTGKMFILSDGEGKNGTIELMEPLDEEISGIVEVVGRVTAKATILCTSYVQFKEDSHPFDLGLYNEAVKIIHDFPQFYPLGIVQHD
# Experimental: RPA binds ssDNA with high affinity and extends the ssDNA to its contour length.
# as §2
# [5] = biological target: T3, RAD52-dsDNA interaction; test: FRET-based RAD52-dsDNA binding assay; conditions: 1 nM dsDNA, 10 nM RAD52
# Excerpt: These assays utilize two complementary single stranded 28-nucleotide-long substrates, which contain either Cy3 (T-28) or Cy5 (P-28) incorporated into the middle of the respective DNA strand. When the substrates are annealed by RAD52, the Cy3 and Cy5 dyes are separated by 3 base pairs and yield a high FRET signal (FIG. 2 Supplement 2). […] The annealing reactions were initiated by mixing two half reactions and observing the change in FRET over time in the presence of varying concentrations of small molecules. An increasing FRET value over time indicates formation of the dsDNA duplex which brings the two dyes in close proximity (FIG. 2 Supplement 2). Fitting the annealing data to a double exponential allowed us to calculate and compare the final extent of annealing at varying concentrations of each compound compared to RAD52 alone. We plotted the final extent of annealing vs the concentration of the compound and calculated an IC50 of annealing inhibition.
# where FRET0 is the initial FRET value of RAD52-ssDNA complex in the absence of the compound and FRETmin is the FRET value at complete inhibition. FRET values were calculated as an average of three or more independent annealing reactions plotted against the concentration of the compound. […]
# [6] = biological target: T6, RPA (Homo sapiens, UniProt P15927+P27694+P35244); test: WaterLOGSY NMR analysis of compound binding to RPA; conditions: 20 or 40 μM compound, 3.3 μM RPA
# T6 construct: made in house
# T6 sequence (P27694 whole entry): as the sequence (P27694 whole entry partner, one chain of several) above
# T6 sequence (P15927 whole entry): as the sequence (P15927 whole entry partner, one chain of several) above
# T6 sequence (P35244 whole entry): as the sequence (P35244 whole entry partner, one chain of several) above
# Excerpt: Compounds ‘1’ and ‘6’ physically interact with RAD52: To confirm that the selected compounds bind RAD52, we employed water-ligand observation with gradient spectroscopy (WaterLOGSY), an NMR technique, which is based on transfer of magnetization from bulk water to the protein-bound compound of interest (Dalvit et al., 2001, Dalvit et al., 2000). In WaterLOGSY spectrum, if a compound binds to a protein, the compound will receive negative nuclear Overhauser effects (NOEs) due to the slow tumbling of the protein-compound complex, leading to a positive WaterLOGSY peak.
# (§3) WaterLOGSY NMR analysis of the compound binding to RAD52 and RPA proteins: Compound binding to RAD52 and RPA proteins was analyzed using water-ligand observation with gradient spectroscopy (WaterLOGSY) NMR experiments (Dalvit et al., 2001, Dalvit et al., 2000). The WaterLOGSY spectra of compounds in the presence of RAD52 or RPA were acquired using a water NOE mixing time of 1 s and a T2 relaxation filter of 50 ms just before data acquisition to suppress the broad signals derived from protein. The protein buffer used in the experiments contains 10 mM Tris-d11, 75 mM KCl, 0.25 mM EDTA, pH 7.5, and 10% D20. All NMR data were acquired on a Bruker Avance II 800 MHz NMR spectrometer equipped with a sensitive cryoprobe and recorded at 25° C. The ^1H chemical shifts were referenced to 2,2-dimethyl-2-silapentane-5-sulfonate (DSS). NMR spectra were processed using NMR Pipe (Delaglio et al., 1995) and analysed using NMR View (Johnson and Blevins, 1994).
# [7] = biological target: T7, RPA-ssDNA interaction (Homo sapiens, UniProt P15927+P27694+P35244); test: FRET titration of the RPA-Cy3-dT30-Cy5 complex; format: binding
# T7 construct: made in house
# T7 sequence (P27694 whole entry): as the sequence (P27694 whole entry partner, one chain of several) above
# T7 sequence (P15927 whole entry): as the sequence (P15927 whole entry partner, one chain of several) above
# T7 sequence (P35244 whole entry): as the sequence (P35244 whole entry partner, one chain of several) above
# Excerpt: Compounds ‘1’ and ‘6’ inhibit RAD52 binding to and annealing of the RPA-coated ssDNA: In the cell, ssDNA is typically found in complex with Replication protein A (RPA), which is the major eukaryotic ssDNA-binding protein essential for DNA replication, repair and recombination (Wold, 1997, Oakley and Patrick, 2010, Chen and Wold, 2014). The RPA-ssDNA complex is a natural substrate for the RDA52-mediated strand annealing. To confirm that compounds ‘1’ and ‘6’ can inhibit the RAD52 binding to and annealing of the RPA-coated ssDNA we added stoichiometric amounts of RPA (1 RPA per 30 nucleotides of ssDNA) to the FRET-based ssDNA binding/wrapping and ssDNA annealing experiments described above. RPA binds ssDNA with high affinity and extends the ssDNA to its contour length. In our assays such an extension manifests as a distinct FRET state of ˜0.3, which is readily distinguished from a FRET state of ˜0.48 of free Cy3-dT30-Cy5 ssDNA, as well as ˜0.63 FRET of the stoichiometric ssDNA-RPA-RAD52 complex (see FIG. 2 Supplement 1 and (Grimme and Spies, 2011) for details). […] Both, however, inhibited the RAD52 binding to and wrapping of RPA-coated ssDNA with IC50 values identical to those determined without RPA (FIG. 2e and FIG. 3e).
# as §2
# [8] = biological target: T1, RAD52; test: WaterLOGSY NMR analysis of compound binding to RAD52; parameters: made in house; conditions: 20 or 40 μM compound, 3.3 μM RAD52
# Experimental: In WaterLOGSY spectrum, if a compound binds to a protein, the compound will receive negative nuclear Overhauser effects (NOEs) due to the slow tumbling of the protein-compound complex, leading to a positive WaterLOGSY peak.
# as §3
# [9] = biological target: T4, RAD52; test: competition; 10 nM poly(dT)-100 fully inhibits wrapped RAD52-Cy3-dT30-Cy5 complex (100 nM RAD52, 15 nM dT30); 20 mM Hepes pH 7.5, 1 mM DTT, 0.1 mg/mL BSA; conditions: tags: 6xHis; chain copies: heptameric ring per 30-mer ssDNA (stated)
# [10] = biological target: T4, RAD52; test: method FRET; stoichiometric wrapped complex at about 8 nM RAD52 with 1 nM ssDNA; 30 mM Tris-acetate pH 7.5, 1 mM DTT, 0.1 mg/mL BSA, 25 C; also bound when ssDNA is RPA-coated (FRET about 0.63); conditions: tags: 6xHis; chain copies: heptameric ring per 30-mer ssDNA (stated); label: Cy3 and Cy5 at the ends
# Experimental: as §1
# [11] = biological target: RPA (RPA70/RPA35/RPA14 heterotrimer) (UniProt P27694;P15927;P35244 P27694:1-616,P15927:1-270,P35244:1-121); test: FRET; 1:1 stoichiometric complex, FRET about 0.3 vs about 0.48 for free ssDNA; 30 mM Tris-acetate pH 7.5, 25 C; conditions: tags: untagged; label: Cy3 and Cy5 at the ends
# Sequence of RPA (RPA70/RPA35/RPA14 heterotrimer) (P27694 whole entry, chain 1 of 3): as the sequence (P27694 whole entry partner, one chain of several) above
# Sequence of RPA (RPA70/RPA35/RPA14 heterotrimer) (P15927 whole entry, chain 2 of 3): as the sequence (P15927 whole entry partner, one chain of several) above
# Sequence of RPA (RPA70/RPA35/RPA14 heterotrimer) (P35244 whole entry, chain 3 of 3): as the sequence (P35244 whole entry partner, one chain of several) above
molecule,measurement,setting,value
NC(Cc1cc(O)c(O)cc1O)C(=O)O (racemic) [6-hydroxy-DL-dopa],Effect on supramolecular assembly of RAD52,[1],disrupts supramolecular assembly of the RAD52 protein
"CCOc1cc(C(Nc2cc(C)ccn2)c2ccc3ccc(C)nc3c2O)ccc1OC (stereo not drawn) [Compound R28, 7-{(3-ethoxy-4-methyoxyphenyl)[(4-methyl-2-pyridinyl)amino]methyl}-2-methyl-8-quinolinol]",Solubility,"[2]; 30 mM Tris-Acetate pH 7.5, 1 mM DTT at 10 μM","Insoluble in 30 mM Tris-Acetate pH 7.5, 1 mM DTT at 10 μM"
"O=c1c2ccccc2nc(CSc2ncnc3[nH]cnc23)n1-c1cccc(C(F)(F)F)c1 [Compound R27, 2-[(9H-purin-6-ylthio)methyl]-3-[3-(trifluoromethyl)phenyl]-4(3H)-qhinazolinone]",Solubility,"[2]; 30 mM Tris-Acetate pH 7.5, 1 mM DTT at 115 μM","Insoluble in 30 mM Tris-Acetate pH 7.5, 1 mM DTT at 115 μM"
"O=C(O[C@@H]1O[C@@H]2COC(=O)c3cc(O)c(O)c(O)c3-c3c(cc(O)c(O)c3O)C(=O)O[C@H]([C@H]1O)[C@@H]2O)c1cc(O)c(O)c(O)c1 [NP-004255, corilagin]",IC50,[3],1.5 ± 0.2 µM
same,IC50,[4],0.5 ± 0.1 µM
same,Effect on the RAD52-dsDNA interaction,[5],no effect
same,Binding to RPA by WaterLOGSY,[6],bound RPA
same,Effect on the RPA-ssDNA interaction,[7],did not affect the RPA-ssDNA complex
same,Binding to RAD52 by WaterLOGSY,[8],physically interacts with RAD52 protein
"Poly dT100 (ssDNA, [none]) DNA: TTTTTTTTTTTTTTTTTTTTTTTTTTTTTTTTTTTTTTTTTTTTTTTTTTTTTTTTTTTTTTTTTTTTTTTTTTTTTTTTTTTTTTTTTTTTTTTTTTTT",binding result,[9],binds
TTTTTTTTTTTTTTTTTTTTTTTTTTTTTT (ssDNA) [Cy3-dT30-Cy5],binding result,[10],binds
same,binding result,[11],binds
